The record followed here is US4178442A, “Novel cinnamoyles piperazines and homopiperazines, the method of preparing them and their application in therapeutics” (Delalande S. A., priority 1977, dated 1979).

For one series, the system named is anaesthetized dog. Description: Antiangorous activity on anaesthetized dog: consumption of oxygen in the left ventricule and cardiac effort (KATZ's index). Format: in vivo. Particulars: for inhibition in vivo at 1.25 mg/kg / inhibition in vivo at 0.625 mg/kg / inhibition in vivo at 5 mg/kg / inhibition in vivo at 2.5 mg/kg / inhibition in vivo at 0.12 mg/kg / inhibition in vivo at […] / inhibition in vivo at 2.3 mg/kg / inhibition in vivo at 1.02 mg/kg / inhibition in vivo at 0.6 mg/kg: Canis lupus familiaris, iv; for inhibition in vivo at […]: 0.15 mg/kg i.v. slow perfusion. The method, then:
The antiangorous activity was tested on an anaesthetized dog (sodium pentobarbital 30 mg/kg/i.v.).
The consumption of oxygen in the left ventricule was estimated by the product of the coronary venous flow and the coronary arteriovenous difference in oxygen (% volume).
The coronary venous flow was measured at the coronary venous sinus by means of a modified Morawitz cannula, introduced under radioscopic control.
The cardiac effort was estimated according to KATZ's index, by the product of the average arterial pressure and the cardiac frequency.
The cardiac frequency was estimated from the electrocardiogram recorded with D2 derivation.
It should be noted that the compounds tested were injected intravenously with slow perfusion.

A short description of the next series: in vivo. Particulars: for mortality: read-out: Toxicity (Mortality); for LD50: read-out: Toxicity: LD50. An excerpt: *LD50 or percentage of mortality which is given between brackets
Setting [1] is: 0.625 mg/kg i.v. slow perfusion.
Where [2] appears, read: 0.625 mg/kg i.v. slow perfusion, read-out: Diminution in consumption of O2.
Setting [3] is: 0.625 mg/kg i.v. slow perfusion, read-out: Diminution in the cardiac effort (IK).
Setting [4] is: 2.5 mg/kg i.v. slow perfusion, read-out: Diminution in consumption of O2.
Where [5] appears, read: 2.5 mg/kg i.v. slow perfusion, read-out: Diminution in the cardiac effort (IK).

Like-named read-outs stand apart in the source and are kept apart here.

As for `CNC(=O)c1ccc(OCC(O)CN2CCN(C(=O)/C=C/c3cc(OC)c(OC)c(OC)c3)CC2)cc1` (centres unmarked) [770 135], in the series with anaesthetized dog (1.25 mg/kg i.v. slow perfusion), the “Diminution in consumption of O2: in time” value came to 30 min and the “Diminution in the cardiac effort (IK): in time” value (“Diminution in the cardiac effort” below) was 30 min. Further, the inhibition in vivo at 1.25 mg/kg with anaesthetized dog (1.25 mg/kg i.v. slow perfusion, read-out: Diminution in consumption of O2) is 40%. For the same molecule, in the series on anaesthetized dog (1.25 mg/kg i.v. slow perfusion, read-out: Diminution in the cardiac effort (IK)), the inhibition in vivo at 1.25 mg/kg worked out at 28%. Besides, in the series “in vivo” (iv, 400 mg/kg i.v.), the mortality stood at 0%.

Consider `COc1cc(/C=C/C(=O)N2CCN(CC(O)COc3ccc(NC(=O)c4ccccc4)c4c3OCCO4)CC2)cc(OC)c1OC` (centres unmarked) [770 529], for which, in the series on anaesthetized dog (setting [1]), the “Diminution in consumption of O2: in time” value turned out to be 30 min and the “Diminution in the cardiac effort” value stood at 30 min. Further, the inhibition in vivo at 0.625 mg/kg with anaesthetized dog (setting [2]) came out at 56%. Also, the inhibition in vivo at 0.625 mg/kg in the series with anaesthetized dog (setting [3]) is 29%. Further, the mortality in “in vivo” (po, p.o.: 2000 mg/kg) is 22%.

Take `COc1cc(/C=C/C(=O)N2CCN(CC(O)CSc3ccc(C)cc3)CC2)cc(OC)c1OC` (centres unmarked) [770 059]: in the series on anaesthetized dog (5 mg/kg i.v. slow perfusion), the “Diminution in consumption of O2: in time” value was 15 min and the “Diminution in the cardiac effort” value stood at 15 min. In the series on anaesthetized dog (5 mg/kg i.v. slow perfusion, read-out: Diminution in consumption of O2), the inhibition in vivo at 5 mg/kg is 64%. Also, in the series on anaesthetized dog (5 mg/kg i.v. slow perfusion, read-out: Diminution in the cardiac effort (IK)), the inhibition in vivo at 5 mg/kg turned out to be 12%. The LD50 in “in vivo” (iv) worked out at 91 mg/kg.

Regarding `COc1cc(/C=C/C(=O)N2CCN(CC(O)COc3ccc(C(C)=O)c4c3OCCO4)CC2)cc(OC)c1` (centres unmarked) [770 538], in the series with anaesthetized dog (2.5 mg/kg i.v. slow perfusion), the “Diminution in consumption of O2: in time” value amounted to 15 min and the “Diminution in the cardiac effort” value came out at 25 min. For the same molecule, in the series on anaesthetized dog (setting [4]), the inhibition in vivo at 2.5 mg/kg was 54%. For the same molecule, in the series with anaesthetized dog (setting [5]), the inhibition in vivo at 2.5 mg/kg was 28%. The LD50 in “in vivo” (iv) came out at 198 mg/kg.

Consider `COc1cc(/C=C/C(=O)N2CCN(CC(O)COc3ccc(NC(C)=O)c4c3OCCO4)CC2)cc(OC)c1OC` (centres unmarked) [760 868], for which, in the series with anaesthetized dog (0.12 mg/kg i.v. slow perfusion), the “Diminution in consumption of O2: in time” value is 30 min and the “Diminution in the cardiac effort” value came to 30 min. Also, the inhibition in vivo at 0.12 mg/kg in the series on anaesthetized dog (0.12 mg/kg i.v. slow perfusion, read-out: Diminution in consumption of O2) was 33%. The inhibition in vivo at 0.12 mg/kg with anaesthetized dog (0.12 mg/kg i.v. slow perfusion, read-out: Diminution in the cardiac effort (IK)) is 18%. The mortality in the series “in vivo” (iv, 215 mg/kg i.v.) stood at 40%.

For `COc1cc(/C=C/C(=O)N2CCN(CC(O)COc3cc(C(C)=O)cc4c3OCCO4)CC2)cc(OC)c1OC` (centres unmarked) [770 590], the “Diminution in consumption of O2: in time” value in the series with anaesthetized dog (2.5 mg/kg i.v. slow perfusion) is 45 min. Also, the “Diminution in the cardiac effort” value with anaesthetized dog (2.5 mg/kg i.v. slow perfusion) came to 45 min. Besides, the inhibition in vivo at 2.5 mg/kg with anaesthetized dog (setting [4]) came to 60%; in the series with anaesthetized dog (setting [5]), 33%. Besides, the 50% lethal dose (LD50) in “in vivo” (iv) worked out at 290 mg/kg.

As to `CCCCNC(=O)Nc1ccc(OCC(O)CN2CCN(C(=O)/C=C/c3cc(OC)c(OC)c(OC)c3)CC2)c2c1OCCO2` (centres unmarked) [770 634], the inhibition in vivo at […] with anaesthetized dog (read-out: Diminution in consumption of O2) stood at 69%; in the series with anaesthetized dog (read-out: Diminution in the cardiac effort (IK)), 27%. The mortality in “in vivo” (iv, 400 mg/kg i.v.) worked out at 30%.

In the case of `COc1cc(/C=C/C(=O)N2CCN(CC(O)COc3ccccc3Cl)CC2)cc(OC)c1OC` (centres unmarked) [760 520], the “Diminution in consumption of O2: in time” value in the series with anaesthetized dog (2.3 mg/kg i.v. slow perfusion) stood at 40 min. Further, the “Diminution in the cardiac effort” value with anaesthetized dog (2.3 mg/kg i.v. slow perfusion) was 30 min. Besides, the inhibition in vivo at 2.3 mg/kg with anaesthetized dog (2.3 mg/kg i.v. slow perfusion, read-out: Diminution in consumption of O2) stood at 45%; in the series with anaesthetized dog (2.3 mg/kg i.v. slow perfusion, read-out: Diminution in the cardiac effort (IK)), 13%. The LD50 in “in vivo” (iv) was 157 mg/kg.

On to `CC(=O)c1ccc(OCC(O)CN2CCN(C(=O)/C=C/c3ccc(F)cc3)CC2)c2c1OCCO2` (centres unmarked) [770 199], for which, in the series with anaesthetized dog (1.02 mg/kg i.v. slow perfusion), the “Diminution in consumption of O2: in time” value is recorded as 15 min and the “Diminution in the cardiac effort” value is 15 min. Moreover, in the series on anaesthetized dog (1.02 mg/kg i.v. slow perfusion, read-out: Diminution in consumption of O2), the inhibition in vivo at 1.02 mg/kg was determined as 29%. The inhibition in vivo at 1.02 mg/kg in the series on anaesthetized dog (1.02 mg/kg i.v. slow perfusion, read-out: Diminution in the cardiac effort (IK)) was 5%. The LD50 in “in vivo” (iv) worked out at 328 mg/kg.

In the case of `CCCC(=O)Nc1ccc(OCC(O)CN2CCN(C(=O)/C=C/c3cc(OC)c(OC)c(OC)c3)CC2)c2c1OCCO2` (centres unmarked) [770 610], in the series on anaesthetized dog (setting [1]), the “Diminution in consumption of O2: in time” value was found to be 60 min and the “Diminution in the cardiac effort” value was 45 min. The inhibition in vivo at 0.625 mg/kg in the series with anaesthetized dog (setting [2]) was determined as 56%. Moreover, the inhibition in vivo at 0.625 mg/kg in the series with anaesthetized dog (setting [3]) was 34%. The mortality in the series “in vivo” (po, p.o.: 2000 mg/kg) was determined as 0%.

On to `CCOC(=O)c1ccc(OCC(O)CN2CCN(C(=O)/C=C/c3cc(OC)c(OC)c(OC)c3)CC2)c2c1OCCO2` (centres unmarked) [760 700], for which the “Diminution in consumption of O2: in time” value in the series on anaesthetized dog (0.6 mg/kg i.v. slow perfusion) turned out to be 45 min. In addition, in the series on anaesthetized dog (0.6 mg/kg i.v. slow perfusion), the “Diminution in the cardiac effort” value was 60 min. Also, the inhibition in vivo at 0.6 mg/kg with anaesthetized dog (0.6 mg/kg i.v. slow perfusion, read-out: Diminution in consumption of O2) is 59%; with anaesthetized dog (0.6 mg/kg i.v. slow perfusion, read-out: Diminution in the cardiac effort (IK)), 47%. Besides, in the series “in vivo” (iv, 367 mg/kg i.v.), the mortality is 0%.

For orientation: mortality means the percentage killed. The LD50 is the dose at which mortality reaches 50%.
